Measured values taken from a compilation of properties of binary mixtures (doi:10.1007/s10953-017-0608-9).
Several values for one entry are separate records, joined by “and”; a condition that tells them apart may be missing. Equal entries are not always repeated.

Assay: xn = mol fraction of the nth substance listed
Settings: 101 kPa

CCCCCCCCn1cc[n+](C)c1.[Br-] + O
electrical conductivity (288.15 K, x1 = 0.0001): 0.029 S/m and 0.0557 S/m
electrical conductivity (288.15 K, x1 = 0.0002): 0.0822 S/m
viscosity (288.15 K, x1 = 0.0002): 1.158 mPa·s
electrical conductivity (298.15 K, x1 = 0.0001): 0.0353 S/m and 0.0696 S/m
viscosity (298.15 K, x1 = 0.0001): 0.896 mPa·s
electrical conductivity (308.15 K, x1 = 0.0001): 0.0426 S/m and 0.0846 S/m
viscosity (308.15 K, x1 = 0.0001): 0.725 mPa·s and 0.73 mPa·s
